We go through 4 compounds from patent publication US7695426B2, “Methods for enhancing viability” (Biological Resources Pty Ltd, priority 2003, dated 2010).

In one experiment the test system is p53 mRNA. The experiment is described as follows: RT-PCR of p53 mRNA in embryos incubated in α-amanitin. In kind it is cell-based, mouse. The source says:
RT-PCR was used to compare the expression of p53 mRNA in fresh p53+/+ mouse embryos (embryos fertilised and grown in the reproductive tract) and IVF mouse embryos. For IVF embryos, the model uses a graded range of stress induced by IVF and culture under conditions of increasing growth factor deprivation. Primers were designed (5′-GGAGTCTTCCAGTGTGATGAT, 3′-GGG ACA GCC MG TCT GTT ATG) that successfully produced an RT-PCR product of the correct size (429 bp) and sequence (SUPAMAC) for the p53 gene. Groups of 5 embryos, oocytes or sperm were pooled. mRNA was extracted and RT-PCR performed.
p53 product was detected in oocytes, zygotes, 8-cell, morulae and blastocyst stage mouse embryos collected from the reproductive tract but not in epididymal sperm. In 2-cell embryos detection was variable. […] Quantitative RT-PCR of p53 was performed to compare expression of p53 mRNA in fresh and IVF embryos. Equivalent levels of RNA were found in the oocyte, zygote, morulae and blastocyst of fresh embryos; the levels were 50-70% lower in late 2-cell embryos than in other development stages (data not shown).

In experiment [1] the test system is mouse embryos. Put plainly: Combined treatment of IGF-II and PFT-α on embryo development in vitro. In kind it is cell-based. The settings on record: IVF zygotes cultured 96 h, 10 ng/ml IGF-II, 1 μM PFT-α, or both; for Cells/blastocyst: control 23 ± 4; for % blastocyst: control 31. Here is the method:
The IGF-II used was human recombinant insulin-like growth factor-II (expressed in E. Coli) (Sigma Chemical Co.), reconstituted with a minimal volume of 0.1M acetic acid and immediately diluted with modified-HTF to a concentration of 50 μg/ml. Aliquots were frozen at −70° C. Upon thawing, aliquots were serially diluted with modified-HTF.
Zygotes produced by IVF from F1 crosses were prepared and cultured as described above, with 1 embryo per […] drop of media. Zygotes were cultured for 96 h in modified HTFM medium individually in 10 μl drops. The proportion of embryos developing to morphologically normal blastocysts, the number of cells in each blastocyst and the number of apoptotic cells per blastocyst were assessed in media containing 10 ng/ml IGF-II, 1 μM PFT-α, or IGF-II+PFT-α.

Experiment [2] concerns mouse embryos. Put plainly: Culture of mouse zygotes (IVF or ISF) with PFT-α as media supplement. In kind it is cell-based. Here is the method: (§1) Mouse IVF: Females superovulated by 5 IU pregnant mare serum gonadotrophin followed 48 h later by 5 IU human chorionic gonadotrophin. Oocytes were collected 13-15 h after hCG and washed. Epididymal sperm collected from the epididymides of male mice (14-35 weeks old) of proven fertility is immediately placed into 1 ml of medium. Sperm were allowed to disperse for 10 min at 37° C. and were then added to the oocytes at 0.1×10^6/ml. Fertilisation was performed in a final volume of 1 ml of medium. Oocytes and sperm were cultured together for 5 h at 37° C. in 5% CO2 in air. The oocytes were then retrieved, washed in Hepes-buffered HTF and their fertilisation status assessed by microscopic detection of pronuclei and polar bodies. Fertilised oocytes were transferred to drops of modified HTF medium under mineral oil and their development status assessed each 24 h.
A recently developed selective inhibitor of p53, pifithrin-α (PFTα [2-(2-imino-4,5,6,7-tetrahydrobenzothiazol-3-yl)-1-p-tolylethanone], Sigma-Aldrich), is a small molecule that reversibly blocks p53-dependent transcriptional activation and apoptosis (Komarov et al., 1999, Science 285, 1733-1737). PFT-α was prepared initially by solubilising to a concentration of 10 mM in dimethylsolfoxide and diluted to working concentrations.
Zygotes were produced by either fertilization in vitro (IVF) or fertilisation in situ (ISF) and cultured for 96 hours in modified HTFM medium individually in […] drops. PFT-α was added as a media supplement over the dose range […]. The proportion of embryos developing to the blastocyst stage (FIG. 3A), the number of cells per normal blastocyst and the proportion of cells undergoing apoptosis (FIG. 3B), were assessed.

The test system of experiment [3] is mouse embryos. Put plainly: Co-treatment of embryos in vitro with PAF and PFT-α. The settings on record: zygotes cultured 96 h; 10 nM PAF, 10 μM PFT-α or both. In kind it is cell-based.
A further experiment relates to sperm and oocytes. Put plainly: Treatment of mouse gametes with PFT-α during capacitation and fertilisation in vitro. In kind it is cell-based. Here is the method:
as §1
PFT-α preparation, IVF and embryo culture was as previously described. The study used F1 (C57Bl6j×CBAj) males and females. PFT-α was added to sperm during its capacitation and during the process of fertilisation in vitro.
4-5 h after the addition of sperm to oocytes, the oocytes were washed free of sperm and PFT-α. They were examined for the presence of 2 pronuclei as evidence of successful fertilisation. Successfully fertilised oocytes were placed in culture in 10 μL of modified HTF media, 1 zygote per 10 μL drop. They were culture for 120 h and the proportion forming morphologically normal blastocysts were recorded. The blastocysts were fixed in 2% formaldehyde and stained with 5 μG Hoechst stain/ml. […]
The effect of dose of PFT-A on the proportion of oocytes fertilised, the proportion of zygotes that developed to morphological blastocyst and the number of cells in each blastocysts were recorded and are shown in FIGS. 4A, B and C respectively. The effect of PFT-A dose was assessed using the SPSS statistical package. The fertilisation rate and development rate were assessed using binary logistic regression analysis while cell numbers were assessed by univariate analysis using the general linear model.

A further experiment deals with bovine sperm. The experiment is described as follows: Treatment of bovine sperm with PFT-α before insemination, blastocyst formation. The format is cell-based. The settings on record: bovine sperm incubated 1 h with 0.3-3 μM PFT-α before insemination; Day 7; compared to control. The method, then: All embryo manipulations were performed at 39° C. except for oocyte harvesting and activation which was performed at room temperature. All procedures were performed in 4-well Nunc dishes in Tissue Culture Medium 199 (TCM-199) supplemented with HEPES (TCM-H TCM-199; Gibco™ BRL/Life Technologies, Melbourne, Victoria, Australia) without mineral oil overlay, unless otherwise indicated.
Bovine ovaries collected from 2 different local slaughterhouse, transported at 30-35° C. to the laboratory and washed on 39° C. physiologic saline (0.9% NaCl; Baxter Healthcare Pty., Ltd., NSW, Australia). Ovarian antral follicles (2-8 mm) were aspirated using an 18-gauge needle and collected into TCM-H with 30 IU ml^−1 heparin (Pharmacia & Upjohn Pty., Ltd., Perth, Wash., Australia) and 2% gamma radiated fetal bovine serum (FBS; JRH Biosciences Pty., Ltd., Melbourne, Victoria, Australia). Cumulus oocyte complexes (COCs) showing an even cytoplasm and surrounded by at least three layers of compact cumulus cells were collected from the follicular fluid. […]
Frozen/thawed semen from an elite bull was placed on a Percoll gradient and centrifuged at 600×g for 20 minutes. The top layers were removed and the sperm concentration and motility of the pellet determined. […]
The proportion of blastocysts were determined on Day 7 (Day 0=fertilization). […]

The next experiment has as its system 2-cell embryos. Put plainly: Intracellular calcium response of embryos to exogenous PAF. In kind it is cell-based, mouse. The settings on record: IVF embryos in comparison to fresh and ISF embryos. Here is the method:
Mammalian embryos express a receptor for PAF, and activation of this receptor elicits a transient increase in the embryo's intracellular calcium concentration (Emerson et al., 2000, Journal of Biological Chemistry 275, 21905-21913; Lu et al., 2003, Biology of Reproduction 69, 106-116).
Mouse embryos were incubated with exogenous PAF and the intracellular Ca^2+ concentration was determined as described by Emerson et al. (2000). Embryos tested were: (i) those fertilized in the reproductive tract and collected fresh from the reproductive tract (fresh); (ii) embryos produced by IVF and cultured in vitro (IVF); and (iii) embryos fertilized in the reproductive tract and cultured in vitro (ISF). […] This reduced signaling correlated with poor development of the embryos in vitro.

Setting [4] is: gametes treated with PFT-α, zygotes cultured 120 h, P<0.05.

In the case of `CC[C@H](C)[C@@H]1NC(=O)CNC(=O)[C@@H]2Cc3c([nH]c4cc(O)ccc34)[S+]([O-])C[C@@H](NC(=O)CNC1=O)C(=O)N[C@@H](CC(N)=O)C(=O)N1C[C@H](O)C[C@H]1C(=O)N[C@@H]([C@@H](C)[C@@H](O)CO)C(=O)N2` (stereo in doubt) [α-amanitin], the “p53 mRNA in embryos after incubation from the 2-cell stage” value in the experiment with p53 mRNA (2-cell embryos incubated in α-amanitin, after 24 h) is reported as “p53 mRNA negative”. Further, in the experiment with p53 mRNA (zygotes incubated in α-amanitin), the “qualitative expression of p53 RNA in zygotes” value is “no effect”.
With `Cc1ccc(C(=O)Cn2c3c(sc2=N)CCCC3)cc1` [PFT-α, 2-(2-imino-4,5,6,7-tetrahydrobenzothiazol-3-yl)-1-p-tolylethanone], in the experiment with mouse embryos [1], the Cells/blastocyst is recorded as 32 ± 4 and the “% blastocyst” value stood at 44%. For the same compound, the “proportion of IVF embryos that developed to the blastocyst stage” value in the experiment with mouse embryos [2] (IVF zygotes cultured 96 h individually, PFT-α dose range 0.1-20 μM) is recorded as “significant quadratic effect”. For the same compound, the embryo survival result in the experiment with mouse embryos [2] (between 0.1 and 20 μM added to embryos in culture) is “significant effect on increasing embryo survival”. In the experiment with mouse embryos [2] (both ISF and IVF zygotes, cultured 96 h, PFT-α dose range 0.1-20 μM), the “number of cells per normal blastocyst” value was “significant improvement”. The “number of cells undergoing apoptosis” value in the experiment on mouse embryos [2] (both ISF and IVF zygotes, cultured 96 h, PFT-α dose range 0.1-20 M (so in the source)) was “significant decrease”. For the same compound, the “embryo viability as proportion of embryos that developed to the blastocyst stage” value with mouse embryos [3] was “increase in embryo viability”. Besides, the “fertilisation rate (proportion of oocytes fertilised)” value in the experiment with sperm and oocytes (PFT-α present during sperm capacitation and IVF, P<0.01) is “dose-dependent increase”. In the experiment on sperm and oocytes (setting [4]), the “mean number of cells present in each embryo (blastocyst)” value is “dose-dependent significant increase” and the “proportion of zygotes that developed to the blastocyst stage” value is “further dose-dependent increase”. The “proportion of resulting embryos that developed to morphological blastocysts” value with bovine sperm is on record as “significant positive effect”.
In the case of “1 hexadecyl/octadecyl-2-acetyl-sn-glyceryl-3-phosphocholine [PAF]”, the “embryo viability as proportion of embryos that developed to the blastocyst stage” value in the experiment on mouse embryos [3] is on record as “increase in embryo viability”. Also, the “proportion of 2-cell IVF embryos that responded to exogenous PAF (intracellular calcium)” value in the experiment on 2-cell embryos was “substantially reduced”.
For “IGF-II: human recombinant insulin-like growth factor-II (expressed in E. Coli), Sigma Chemical Co.”, in the experiment with mouse embryos [1], the Cells/blastocyst was found to be 29 ± 2 and the “% blastocyst” value is 42%.
